Measured values published in US11752125B2, “Anti-neuroinflammatory and protective compounds in Achillea fragrantissima” (THE STATE OF ISRAEL MINISTRY OF AGRICULTURE & RURAL …, priority 2013, dated 2023).

Key:
[1] = tested on: SAPK/JNK; test: H2O2-induced SAPK/JNK phosphorylation in astrocytes (ELISA); assay type: cell-based, rat; conditions: H2O2 175 μM 40 min
Procedure: Astrocytes were treated with TTF 2 h before the addition of H2O2. Cells were lysed 40 minutes after the addition of H2O2 in lysis buffer supplied by PathScan sandwich ELISA kit (Cell Signaling TECHNOLOGY) according to the manufacturer's protocol. Protein concentrations in cell lysates were determined by Bradford reagent (Bio-Rad, Hercules, Calif.), and equal amounts of proteins were subjected to ELISA. To measure the amount of total and phosphoSAPK/JNK in cell lysates of astrocytes, ELISA was performed according to the manufacturer's protocol using the PathScan total SAPK/JNK sandwich ELISA kit (Cell Signaling TECHNOLOGY) and the PathScan phospho-SAPK/JNK (Thr183/Tyr185) sandwich ELISA kit (Cell Signaling TECHNOLOGY), respectively. […] The optical density was determined at 450 nm using a microplate reader.
1. […] Determine the optical density at 450 nm using a microplate reader.
Astrocytes were treated with 175 μM of H2O2 for 40 min following preincubation with TTF for 2 h. The levels of phosphorylated and total SAPK/JNK (FIG. 3A), MEK1 (FIG. 3B) and ERK 1/2 (FIG. 3C) were measured by ELISA. […]

[2] = tested on: N2a neuronal cells; test: Glutamate-induced ROS elevation in N2a cells; assay type: cell-based; conditions: glutamate 100 μM, 20 hr
Procedure: 1. Plate N2a cells (10,000 cells/0.2 ml/well of 96 wells plate) in DMEM (high glucose, 225 ml), Opti-MEM (250 ml) containing 1% Fetal Bovine Serum, 2 mM L-Glutamine, 100 U/ml penicillin and 100 micrograms/mL streptomycin and incubate (37° C., 5% CO2) for 24 hr. 2. Replace growth medium with a fresh one containing 20 micromolars 2′7′-dichlorofluorescein diacetate (DCF-DA); 3. Incubate 30 min (37° C., 5% CO2); 4. Wash twice with PBS; 5. Replace with fresh medium; 6. Read fluorescence of “time 0” at 485 nm (Extinction) and 528 nm (Emmision). 7. Incubate the cultured cells for 2 hours with freshly diluted TTF or AcA of the invention; 8. Add freshly diluted glutamate (100 micromolars); 9. Read fluorescence at 20 hr after the addition of glutamate (100 micromolars) (Ex: 485 nm and Em: 528 nm). 10. A reduction of 55% of ROS levels are indication for an anti-oxidant activity in this assay.
N2a neuronal cells were treated with glutamate (100 μM) and TTF. ROS levels were measured 20 hr later. The results are shown in FIG. 17 and are the mean±SEM of two different experiments (n=16).
N2a neuronal cells were treated with glutamate (100 μM) and achillolide A. ROS levels were measured 20 hr later. […]
Achillolide A was added to N2a cells before (−2 h, −1 h) concomitant (0) or after (1 h, 2 h) the addition of glutamate. ROS levels were measured 20 h later. […]

SMILES | effect on H2O2-induced phosphorylation of SAPK/JNK ([1]; astrocytes preincubated 2 h) | effect on glutamate-induced ROS elevation [2] | inhibition of H2O2-induced phosphorylation of SAPK/JNK ([1]; astrocytes pretreated 2 h, total SAPK/JNK not affected) [%]
C=C1CCC2=C(CO)C(=O)O[C@H]2/C=C(\C)[C@H](OC(C)=O)CC1=O [achillolide A] | inhibitory effect | prevents the elevation in ROS levels | 
COc1cc(-c2oc3cc(OC)c(OC)c(O)c3c(=O)c2O)ccc1O [TTF, 3,5,4′-trihydroxy-6,7,3′-trimethoxyflavone] |  | prevents the elevation in ROS levels | 80
